The source made the active and inactive calls.
Experiments:
[1] = biological target: T1, Polyadenylate-binding protein 1 (Homo sapiens, UniProt P11940); assay: MLLE domain peptide-binding blockers, IC50 – biochemical, fluorescence polarization, FITC-PAM2 peptide, dose response (AID 602259); format: functional; details: read-out: IC50_Mean
[2] = biological target: T1, Polyadenylate-binding protein 1; assay: MLLE binding blockers, Cy5 peptide tracer – biochemical, fluorescence polarization, Cy5-PAM2 peptide, secondary, miRNA deadenylation inhibitor project, dose response (AID 602260); format: functional; details: read-out: IC50_Mean
Cytochrome P450 2C9 [3] = biological target: T2, Cytochrome P450 2C9 (Homo sapiens, UniProt P11712)
T2 sequence (P11712 whole entry): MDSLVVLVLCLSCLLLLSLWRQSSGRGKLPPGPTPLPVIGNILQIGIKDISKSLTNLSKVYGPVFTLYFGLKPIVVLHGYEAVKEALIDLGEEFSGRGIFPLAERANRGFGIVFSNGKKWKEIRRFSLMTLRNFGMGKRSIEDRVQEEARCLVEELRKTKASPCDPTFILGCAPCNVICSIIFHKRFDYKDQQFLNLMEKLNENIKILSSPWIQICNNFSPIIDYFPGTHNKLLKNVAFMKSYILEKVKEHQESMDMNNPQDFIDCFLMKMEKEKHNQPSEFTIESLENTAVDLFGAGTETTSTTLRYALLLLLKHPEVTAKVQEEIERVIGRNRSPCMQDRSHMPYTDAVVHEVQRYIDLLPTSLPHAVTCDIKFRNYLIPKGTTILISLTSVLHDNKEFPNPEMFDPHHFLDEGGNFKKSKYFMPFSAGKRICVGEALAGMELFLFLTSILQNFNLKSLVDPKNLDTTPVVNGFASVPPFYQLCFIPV

Cytochrome P450 1A2 = biological target: T3, Cytochrome P450 1A2 (Homo sapiens, UniProt P05177);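 further: PubChem cytochrome P450 panel assay, CYP1A2 panel member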
T3 sequence (P05177 whole entry): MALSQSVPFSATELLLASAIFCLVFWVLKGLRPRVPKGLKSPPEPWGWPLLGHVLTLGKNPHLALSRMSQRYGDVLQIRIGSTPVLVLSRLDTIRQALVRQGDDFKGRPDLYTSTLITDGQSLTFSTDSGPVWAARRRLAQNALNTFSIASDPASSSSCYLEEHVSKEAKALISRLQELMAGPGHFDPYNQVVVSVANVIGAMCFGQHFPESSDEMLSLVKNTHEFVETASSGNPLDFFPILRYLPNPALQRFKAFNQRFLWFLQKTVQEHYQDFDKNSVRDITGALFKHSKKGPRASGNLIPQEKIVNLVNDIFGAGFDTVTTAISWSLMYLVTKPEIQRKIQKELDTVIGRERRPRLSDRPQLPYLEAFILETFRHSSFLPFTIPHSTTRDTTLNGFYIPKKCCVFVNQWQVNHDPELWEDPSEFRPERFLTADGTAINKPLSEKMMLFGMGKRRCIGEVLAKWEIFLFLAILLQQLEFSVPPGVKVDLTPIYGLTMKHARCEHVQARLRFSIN

Cytochrome P450 2C19 = Cytochrome P450 2C19 (Homo sapiens, UniProt P33261); assay: Cytochrome panel assay with activity outcomes. Panel member name: p450-cyp2c19 Compounds with AC50 equal or less than 10 uM are considered active; format: functional; details: read-out: AC50
Chain of Cytochrome P450 2C19 (P33261 whole entry): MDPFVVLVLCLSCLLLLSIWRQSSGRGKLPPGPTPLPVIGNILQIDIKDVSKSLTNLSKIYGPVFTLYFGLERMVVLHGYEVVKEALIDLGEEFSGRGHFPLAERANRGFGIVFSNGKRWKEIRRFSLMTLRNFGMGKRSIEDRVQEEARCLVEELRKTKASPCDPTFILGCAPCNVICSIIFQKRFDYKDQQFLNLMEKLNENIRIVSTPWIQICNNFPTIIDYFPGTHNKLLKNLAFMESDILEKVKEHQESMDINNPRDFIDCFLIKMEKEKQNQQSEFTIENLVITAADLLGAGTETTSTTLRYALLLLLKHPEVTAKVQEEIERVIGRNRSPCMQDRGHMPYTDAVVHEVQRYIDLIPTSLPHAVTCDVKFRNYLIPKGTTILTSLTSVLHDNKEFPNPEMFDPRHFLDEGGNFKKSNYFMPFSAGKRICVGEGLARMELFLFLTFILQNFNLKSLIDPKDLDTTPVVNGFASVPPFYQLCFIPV

Cytochrome P450 3A4 = Cytochrome P450 3A4 (Homo sapiens, UniProt P08684);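 further: CYP3A4 tested as one member of a cytochrome P450 panel screen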
Chain of Cytochrome P450 3A4 (P08684 whole entry): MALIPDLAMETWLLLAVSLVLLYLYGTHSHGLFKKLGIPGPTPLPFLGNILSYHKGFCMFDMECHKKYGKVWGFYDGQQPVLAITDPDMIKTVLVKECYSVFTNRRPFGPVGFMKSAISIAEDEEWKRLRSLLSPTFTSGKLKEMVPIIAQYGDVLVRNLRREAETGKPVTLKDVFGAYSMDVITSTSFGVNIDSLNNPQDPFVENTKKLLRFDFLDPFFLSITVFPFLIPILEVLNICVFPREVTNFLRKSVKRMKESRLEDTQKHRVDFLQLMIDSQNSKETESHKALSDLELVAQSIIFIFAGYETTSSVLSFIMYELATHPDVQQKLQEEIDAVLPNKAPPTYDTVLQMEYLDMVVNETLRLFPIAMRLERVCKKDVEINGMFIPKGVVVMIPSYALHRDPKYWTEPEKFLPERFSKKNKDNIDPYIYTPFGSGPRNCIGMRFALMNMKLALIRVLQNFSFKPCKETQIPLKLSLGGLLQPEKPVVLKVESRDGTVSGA

Fatty acid synthase [4] = biological target: T4, Fatty acid synthase (Homo sapiens, UniProt P49327); assay: inhibition of human FAS-TE enzyme activity – biochemical, endpoint fluorescence intensity, uHTS hits, dose response (AID 624327); format: functional;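 further: fluorescence from hydrolysis of an O-methyl fluorescein acyl ester substrate by the enzyme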
T4 sequence (P49327 whole entry): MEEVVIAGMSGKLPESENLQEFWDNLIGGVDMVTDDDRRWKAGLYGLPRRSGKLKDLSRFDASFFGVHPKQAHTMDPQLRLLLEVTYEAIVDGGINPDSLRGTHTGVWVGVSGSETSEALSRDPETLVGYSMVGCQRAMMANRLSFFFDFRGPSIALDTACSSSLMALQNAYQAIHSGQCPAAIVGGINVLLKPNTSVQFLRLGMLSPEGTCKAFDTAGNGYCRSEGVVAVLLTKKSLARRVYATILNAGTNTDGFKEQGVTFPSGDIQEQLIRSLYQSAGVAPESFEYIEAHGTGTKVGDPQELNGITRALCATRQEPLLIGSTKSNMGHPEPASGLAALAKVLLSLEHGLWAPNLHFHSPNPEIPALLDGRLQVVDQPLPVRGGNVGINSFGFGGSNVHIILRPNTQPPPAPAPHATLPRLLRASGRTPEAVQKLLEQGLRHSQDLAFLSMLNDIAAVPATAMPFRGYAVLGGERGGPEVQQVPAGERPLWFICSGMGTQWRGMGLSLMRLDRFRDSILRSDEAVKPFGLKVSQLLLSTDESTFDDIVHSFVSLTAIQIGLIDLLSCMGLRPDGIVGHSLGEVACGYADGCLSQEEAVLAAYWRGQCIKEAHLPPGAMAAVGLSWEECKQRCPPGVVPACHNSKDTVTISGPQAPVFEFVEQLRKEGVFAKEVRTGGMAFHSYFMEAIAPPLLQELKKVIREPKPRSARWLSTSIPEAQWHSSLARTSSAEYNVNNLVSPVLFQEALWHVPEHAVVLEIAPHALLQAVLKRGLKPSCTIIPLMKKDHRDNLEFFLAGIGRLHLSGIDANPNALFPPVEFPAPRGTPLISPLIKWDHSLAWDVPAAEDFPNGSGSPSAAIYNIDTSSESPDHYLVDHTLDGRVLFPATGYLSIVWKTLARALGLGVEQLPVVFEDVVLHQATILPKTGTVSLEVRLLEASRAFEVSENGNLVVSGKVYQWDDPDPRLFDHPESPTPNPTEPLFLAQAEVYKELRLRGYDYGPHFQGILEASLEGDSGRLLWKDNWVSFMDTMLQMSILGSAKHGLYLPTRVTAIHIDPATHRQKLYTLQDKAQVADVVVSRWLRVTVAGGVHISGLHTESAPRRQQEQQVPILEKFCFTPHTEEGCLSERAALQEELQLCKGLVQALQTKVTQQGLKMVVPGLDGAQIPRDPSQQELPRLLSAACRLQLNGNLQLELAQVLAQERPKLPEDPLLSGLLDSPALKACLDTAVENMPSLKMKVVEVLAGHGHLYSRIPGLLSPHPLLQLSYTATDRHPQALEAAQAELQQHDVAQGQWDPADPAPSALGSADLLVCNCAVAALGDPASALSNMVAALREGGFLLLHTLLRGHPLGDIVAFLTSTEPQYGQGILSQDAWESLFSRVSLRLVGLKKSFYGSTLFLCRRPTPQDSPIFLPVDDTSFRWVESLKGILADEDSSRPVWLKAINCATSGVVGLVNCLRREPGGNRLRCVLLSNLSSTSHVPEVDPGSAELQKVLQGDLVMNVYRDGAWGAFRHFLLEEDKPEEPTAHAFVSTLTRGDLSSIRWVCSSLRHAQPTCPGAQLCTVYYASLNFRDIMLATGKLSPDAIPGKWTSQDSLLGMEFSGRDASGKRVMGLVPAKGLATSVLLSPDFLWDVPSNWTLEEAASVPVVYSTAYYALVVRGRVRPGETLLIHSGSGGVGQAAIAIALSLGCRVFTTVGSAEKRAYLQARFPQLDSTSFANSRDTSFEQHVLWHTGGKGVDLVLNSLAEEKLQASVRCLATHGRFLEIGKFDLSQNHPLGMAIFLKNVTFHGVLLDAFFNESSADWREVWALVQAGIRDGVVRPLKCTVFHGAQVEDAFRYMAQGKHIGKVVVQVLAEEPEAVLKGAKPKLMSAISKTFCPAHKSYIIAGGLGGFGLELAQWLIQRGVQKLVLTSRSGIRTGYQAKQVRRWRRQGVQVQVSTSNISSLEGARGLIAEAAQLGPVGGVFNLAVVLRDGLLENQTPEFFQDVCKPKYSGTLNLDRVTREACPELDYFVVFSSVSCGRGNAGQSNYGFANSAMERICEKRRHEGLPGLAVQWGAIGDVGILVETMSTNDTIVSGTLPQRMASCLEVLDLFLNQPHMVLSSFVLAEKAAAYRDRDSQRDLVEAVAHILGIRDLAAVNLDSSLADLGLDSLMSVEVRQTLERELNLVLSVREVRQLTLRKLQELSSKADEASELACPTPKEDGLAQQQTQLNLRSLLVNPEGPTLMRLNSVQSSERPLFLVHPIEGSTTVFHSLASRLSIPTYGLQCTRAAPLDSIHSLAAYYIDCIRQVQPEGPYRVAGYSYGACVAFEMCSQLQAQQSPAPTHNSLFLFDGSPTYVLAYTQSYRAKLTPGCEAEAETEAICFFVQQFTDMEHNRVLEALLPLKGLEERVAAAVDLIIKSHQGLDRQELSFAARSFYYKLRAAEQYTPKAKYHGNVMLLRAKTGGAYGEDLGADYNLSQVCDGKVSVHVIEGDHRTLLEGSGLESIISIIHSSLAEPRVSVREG

Fatty acid synthase [5] = biological target: T4, Fatty acid synthase; assay: inhibition of human FAS-TE enzyme activity – biochemical, kinetic fluorescence intensity, dose response (AID 624326); format: functional;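 further: rate of fluorescence rise from hydrolysis of a fluorogenic O-methyl fluorescein ester substrate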
[6] = loss of viability in HepG2 cells – cell-based, CellTiter-Glo, cherry-picked, cytotoxicity control for Shn3 inhibitor project, dose response (AID 624134); format: functional
[7] = reduction of Shn3 3'UTR-driven luciferase in osteoblasts – cell-based, Clone20 osteoblasts, firefly luciferase, cherry-picked, dose response (AID 624132); format: functional;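 further: firefly luciferase luminescence from reporter carrying the Shn3 3'UTR in osteoblasts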
[8] = Luminescence Cell-Based Dose Retest to Confirm Inhibitors of Cancer Stem Cells. [Related pubchem assays (depositor defined):AID2717, AID2721]; format: functional; details: Homo sapiens
[9] = non-specific 3'UTR reporter inhibition in Clone20-Shn3RL – cell-based, Renilla luciferase, cherry-picked, counter-screen for Shn3 inhibitor project, dose response (AID 624133); format: functional
[10] = biological target: T5, Carboxy-terminal domain RNA polymerase II polypeptide A small phosphatase 1 (Homo sapiens, UniProt Q9GZU7); assay: CTDSP1 inhibitors, concentration-response, biochemical, absorbance readout, ultra-high-throughput screen actives (AID 540297); format: functional
T5 sequence (Q9GZU7 whole entry): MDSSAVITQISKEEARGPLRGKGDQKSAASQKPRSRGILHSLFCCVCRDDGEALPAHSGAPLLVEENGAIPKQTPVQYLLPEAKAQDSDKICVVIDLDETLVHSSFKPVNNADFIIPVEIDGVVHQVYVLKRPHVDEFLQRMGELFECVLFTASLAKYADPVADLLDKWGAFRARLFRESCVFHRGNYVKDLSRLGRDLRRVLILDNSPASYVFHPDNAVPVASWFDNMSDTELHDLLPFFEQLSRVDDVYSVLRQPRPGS

Cytochrome P450 2C9 [11] = biological target: T2, Cytochrome P450 2C9; remark: listed apart in the source
Cytochrome P450 2D6 = Cytochrome P450 2D6 (Homo sapiens, UniProt P10635);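 further: CYP2D6 member of a cytochrome P450 panel assay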
Genome polyprotein = Genome polyprotein (dengue virus type 2, UniProt P29990); assay: flavivirus cap methylation enzyme inhibition – biochemical, confirmation dose response, primary screen (AID 588689); format: functional

T1 sequence (P11940 whole entry, the tested form may be a part): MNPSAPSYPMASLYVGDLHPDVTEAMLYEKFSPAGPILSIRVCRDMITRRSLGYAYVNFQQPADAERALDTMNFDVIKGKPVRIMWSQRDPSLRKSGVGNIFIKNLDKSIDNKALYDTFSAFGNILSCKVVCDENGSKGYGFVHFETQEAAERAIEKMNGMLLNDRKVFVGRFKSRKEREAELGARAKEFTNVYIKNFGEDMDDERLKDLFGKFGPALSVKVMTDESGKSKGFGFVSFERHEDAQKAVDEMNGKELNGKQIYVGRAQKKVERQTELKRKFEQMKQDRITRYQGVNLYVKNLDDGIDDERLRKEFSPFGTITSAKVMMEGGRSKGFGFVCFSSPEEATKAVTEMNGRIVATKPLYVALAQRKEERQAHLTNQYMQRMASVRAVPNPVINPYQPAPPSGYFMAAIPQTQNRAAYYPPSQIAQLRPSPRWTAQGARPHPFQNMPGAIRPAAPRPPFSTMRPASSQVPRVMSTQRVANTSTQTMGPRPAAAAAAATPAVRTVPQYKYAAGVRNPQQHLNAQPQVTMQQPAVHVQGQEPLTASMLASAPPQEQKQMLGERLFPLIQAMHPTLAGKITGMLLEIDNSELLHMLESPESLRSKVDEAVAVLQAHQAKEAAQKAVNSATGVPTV

With CC(=O)c1c(S)nc(-c2ccccc2)nc1NC(=O)c1ccccc1 the IC50 [1] was > 66 µM (inactive) and the IC50 [2] was > 66 µM (inactive).
With CCCCCCCC/C=C\CCCCCCCC(=O)N[C@@H](CO)Cc1ccc(O)cc1 the AC50 (Cytochrome P450 2C9 [3]) was “inconclusive”, the AC50 (Cytochrome P450 1A2) was 25.1 µM (inconclusive) and the AC50 (Cytochrome P450 2C19) was 31.6 µM (inconclusive).
For O=c1cnc2cnc(N3CCOCC3)nc2n1C[C@H]1CCCO1, the AC50 (Cytochrome P450 2C9 [3]) was “inconclusive” and the AC50 (Cytochrome P450 3A4) was 15.8 µM (inconclusive).
With CCn1c(C)c(C(C)=O)c(N2CCN(C(c3ccccc3)c3ccccc3)CC2)nc1=S the IC50 (Fatty acid synthase [4]) was 8.43 µM (active) and the IC50 (Fatty acid synthase [5]) was 23.1 µM (inactive).
In the case of CC(C)C[C@@H](CO)N(Cc1ccccc1)S(=O)(=O)N(Cc1ccccc1)[C@@H](CO)CC(C)C, the AC50 [6] was 21.9 µM (active), the AC50 [7] was 11.4 µM (active) and the AC50 [8] was 4.21 µM (active). The AC50 [9] was 31 µM (active).
With O=C(CN1C(=O)NC2(CCCC2)C1=O)OCc1cc(=O)n2cc(Br)ccc2n1 the IC50 [10] was 6.81 µM (active).
In the case of CC(NC(=O)c1cccs1)C(S)c1ccccc1 (stereo not given), the IC50 [1] was > 66 µM (inactive) and the IC50 [2] was > 66 µM (inactive).
With O=C1Nc2cc(Cl)c(Cl)cc2N(O)N1c1ccc(Cl)c(Cl)c1 the AC50 (Cytochrome P450 2C9 [11]) was 3.98 µM (inconclusive), the IC50 (Fatty acid synthase [4]) was 6.59 µM (active) and the IC50 (Fatty acid synthase [5]) was 12 µM (active). For the same compound, the AC50 (Cytochrome P450 3A4) was 39.8 µM (inconclusive) and the AC50 (Cytochrome P450 2C19) was 28.2 µM (inconclusive).
In the case of CCNc1nc(NCC)n2c(SCC(=O)Nc3ccc(F)cc3)nnc2n1, the IC50 [10] was 10.3 µM (active).
For O=C(O)Cn1c2ccccc2c2nnc(S)nc21, the IC50 [1] was > 66 µM (inactive) and the IC50 [2] was > 66 µM (inactive).
In the case of Cc1cc(=O)oc2cc(NC(=O)c3cccc(F)c3)ccc12, the IC50 [10] was 4.51 µM (active).
In the case of C=CCOc1ccc(CNC(C)(C)CO)cc1OCC.Cl, the AC50 (Cytochrome P450 2C9 [3]) was “inconclusive”.
With O=C(Cc1ccccc1[N+](=O)[O-])NCc1ccccc1Cl the AC50 (Cytochrome P450 2C9 [3]) was “inconclusive”, the AC50 (Cytochrome P450 2D6) was 15.8 µM (inconclusive) and the AC50 (Cytochrome P450 3A4) was 15.8 µM (inconclusive).
With C#CCOc1ccccc1/C=C1/C(=O)ON=C1C the IC50 (Genome polyprotein) was > 100 µM (active).
In the case of COC(=O)CCC(=O)NNC(=O)CCCOc1ccc(Cl)cc1Cl, the AC50 (Cytochrome P450 2C9 [3]) was “inconclusive”, the AC50 (Cytochrome P450 3A4) was 15.8 µM (inconclusive) and the AC50 (Cytochrome P450 2C19) was 3.55 µM (inconclusive).
For Cc1cccc(COCC(CC(C)C)N2CCN(C(=O)c3ccc(C(C)(C)C)cc3)CCC2=O)c1 (stereo not given), the IC50 (Fatty acid synthase [4]) was 8.21 µM (active) and the IC50 (Fatty acid synthase [5]) was 6.11 µM (active).
For COc1ccc(C2=NN(C(=O)CSc3nc(=O)n4cc(C)ccc4n3)C(c3ccc(C)cc3)C2)cc1 (stereo not given), the IC50 (Fatty acid synthase [4]) was 19.2 µM (active) and the IC50 (Fatty acid synthase [5]) was 12.9 µM (active).
For Cc1cc(C(=O)CSc2nc(N)cc(O)n2)c(C)n1-c1cccc(F)c1, the AC50 [6] was > 70 µM (inactive), the AC50 [7] was 1.66 µM (active) and the AC50 [9] was 26.2 µM (active).
